According to patent US12616674B2, “Anti-fibrotic NEU3 inhibitor compounds and methods of use” (The Texas A&M University System, priority 2019, dated 2026):

Molecular target: T1, recombinant mouse NEU3 (Mus musculus, UniProt Q9JMH7)
T1 construct: c-Myc; host or cells: HEK 293 Freestyle cells
T1 sequence (Q9JMH7 1-418): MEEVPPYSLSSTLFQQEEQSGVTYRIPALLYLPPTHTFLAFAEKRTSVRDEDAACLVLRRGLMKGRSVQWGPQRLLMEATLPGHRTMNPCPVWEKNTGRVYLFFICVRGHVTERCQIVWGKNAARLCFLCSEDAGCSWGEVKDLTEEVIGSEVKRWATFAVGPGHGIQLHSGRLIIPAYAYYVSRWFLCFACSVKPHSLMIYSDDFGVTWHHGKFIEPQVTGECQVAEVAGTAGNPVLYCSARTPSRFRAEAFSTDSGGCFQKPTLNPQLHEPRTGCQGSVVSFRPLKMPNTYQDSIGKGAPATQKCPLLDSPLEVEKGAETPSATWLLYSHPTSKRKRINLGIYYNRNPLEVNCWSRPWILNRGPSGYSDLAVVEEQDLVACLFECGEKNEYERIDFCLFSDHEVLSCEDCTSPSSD
Experiment: Recombinant mouse NEU3-catalyzed TGF-β1 activation (TGF-β1 ELISA)
Format: biochemical
Settings: recombinant mouse NEU3, FIGS. 7A-B
Method: To determine if selected NEU3 inhibitors could be used in mice to inhibit mouse NEU3, we made recombinant mouse NEU3 in HEK 293 Freestyle human embryonic kidney cells. HEK 293 Freestyle cells (Life Technologies, Grand Island, NY) were cultured in FreeStyle 293 media (12338-018, Life Technologies, Grand Island, NY). 1×10^5 cells were mixed with 2 μg of 100 μg/ml of murine Neu3 expression clone (MR223297, Origene), in 100 μl PBS (GE Lifesciences), and were transfected by electroporation using a 4D-Nucelofactor System (Lonza) following the manufacturer's protocol. The transfected cells were kept at room temperature for 15 minutes for recovery, after which the cells were cultured in 25 ml Freestyle 293 media with 250 μg/ml of G418 antibiotic (345812, Calbiochem EMD Chemicals Inc. San Diego, CA) to select for transfected cells, in a 200 ml cell culture flask (431464U, Corning) at 37° C. humidified with 5% CO2. After 10 days, the cells were isolated, lysed, and c-Myc tagged recombinant mouse NEU3 protein was purified using a Myc-Trap A kit (ytak-20, Chromotek, Hauppauge, NY) following the manufacturer's protocol. The eluted protein was stored in 50 μl of 10% glycerol, 100 mM glycine, 25 mM Tris-HCl pH 7.3.
To determine if NEU3 inhibitors would be effective in mice, NEU3 inhibitors were tested against recombinant mouse NEU3. […]

Row | inhibition of NEU3's activation of TGF-β1 | Structure (SMILES)
1 | inhibited | COC(=O)c1ccccn1 [Compound 6, methyl picolinate]
2 | inhibited | CC(=O)c1ccccn1 [Compound 5, 2-acetylpyridine]
